Assay results from patent US5859257A, “Isoxazole compounds as cyclooxygenase inhibitors” (G. D. Searle & Co., priority 1996, dated 1999).

What was measured:
COX-1 = assay: Evaluation of COX-1 activity in vitro (PGE2 ELISA, recombinant enzyme); format: biochemical, human or murine; conditions: arachidonic acid 10 μM, pH 8.0, pre-incubation 10-20 minutes
Procedure: (§1) a. Preparation of recombinant COX baculoviruses
(§2) Recombinant COX-1 and COX-2 were prepared as scribed by Gierse et al, [J. Biochem., 305, 479-84 (1995)]. […] Recombinant baculoviruses were isolated by transfecting 4 μg of baculovirus transfer vector DNA into SF9 insect cells (2×10^8) along with 200 ng of linearized baculovirus plasmid DNA by the calcium phosphate method. See M. D. Summers and G. E. Smith, A Manual of Methods for Baculovirus Vectors and Insect Cell Culture Procedures, Texas Agric. Exp. Station Bull. 1555 (1987). Recombinant viruses were purified by three rounds of plaque purification and high titer (10^7 -10^8 pfu/mL) stocks of virus were prepared. For large scale production, SF9 insect cells were infected in 10 liter fermentors (0.5×10^6 /mL) with the recombinant baculovirus stock such that the multiplicity of infection was 0.1. After 72 hours the cells were centrifuged and the cell pellet homogenized in Tris/Sucrose (50 mM: 25%, pH 8.0) containing 1% 3-[(3-cholamidopropyl)dimethylammonio]-1-propanesulfonate (CHAPS). The nomogenate was centrifuged at 10,000×G for 30 minutes, and the resultant supernatant was stored at -80° C. before being assayed for COX activity.
(§3) COX activity was assayed as PGE2 formed/μg protein/time using an ELISA to detect the prostaglandin released. CHAPS-solubilized insect cell membranes containing the appropriate COX enzyme were incubated in a potassium phosphate buffer (50 mM, pH 8.0) containing epinephrine, phenol, and heme with the addition of arachidonic acid (10 μM). […] Any reaction between the arachidonic acid and the enzyme was stopped after ten minutes at 37° C./room temperature by transferring 40 μl of reaction mix into 160 μl ELISA buffer and 25 μM indomethacin. The PGE2 formed was measured by standard ELISA technology (Cayman Chemical).

rat paw edema = assay: Rat Carrageenan Foot Pad Edema Test; format: in vivo, Male Sprague-Dawley rats; conditions: @ 10 mg/kg body weight, oral, 3 h after carrageenan
Procedure: Rat Carrageenan Foot Pad Edema Test
Male Sprague-Dawley rats were selected in each group so that the average body weight was as close as possible. Rats were fasted with free access to water for over sixteen hours prior to the test. […] One hour later a subplantar injection of 0.1 mL of 1% solution of carrageenan/sterile 0.9% saline was administered and the volume of the injected foot was measured with a displacement plethysmometer connected to a pressure transducer with a digital indicator. Three hours after the injection of the carrageenan, the volume of the foot was again measured.

COX-2 = assay: Evaluation of COX-2 activity in vitro (PGE2 ELISA, recombinant enzyme); format: biochemical, human or murine; conditions: arachidonic acid 10 μM, pH 8.0, pre-incubation 10-20 minutes
Procedure: The COX-2 inhibition activity of the compounds of this invention illustrated in the Examples was determined by the following methods.
as §1, §2, §3

Row | IC50 (COX-1) [µM] | IC50 (COX-2) [µM] | Compound | RAT PAW EDEMA % Inhibition (rat paw edema) [%]
1 | 90.5 | < 0.1 | Cc1onc(-c2ccc(Cl)cc2)c1-c1ccc(S(N)(=O)=O)cc1 [Example 4a, 4-[3-(4-chlorophenyl)-5-methyl-isoxazol-4-yl]benzenesulfonamide] | –
2 | 44 | < 0.1 | Cc1ccc(-c2noc(C)c2-c2ccc(S(N)(=O)=O)cc2)cc1Cl [Example 4d, 4-[3-(3-chloro-4-methylphenyl)-5-methyl-isoxazol-4-yl]benzenesulfonamide] | –
3 | 50.7 | < 0.1 | NS(=O)(=O)c1ccc(-c2c(-c3ccccc3)noc2CCl)cc1 [Example 1k, 4-[5-chloromethyl-3-phenylisoxazol-4-yl]benzenesulfonamide] | –
4 | 66.5 | < 0.1 | Cc1ccc(-c2noc(C)c2-c2ccc(S(N)(=O)=O)cc2)cc1F [Example 4c, 4-[3-(3-fluoro-4-methylphenyl)-5-methyl-isoxazol-4-yl]benzenesulfonamide] | –
5 | 37.7 | < 0.1 | CC(C)Cc1onc(-c2ccccc2)c1-c1ccc(S(N)(=O)=O)cc1 [Example 1e, 4-[5-isobutyl-3-phenylisoxazol-4-yl]benzenesulfonamide] | –
6 | > 100 | 0.1 | NS(=O)(=O)c1ccc(-c2c(-c3ccccc3)noc2CCCO)cc1 [Example 1o, 4-[5-(3-hydroxypropyl)-3-phenylisoxazol-4-yl]benzenesulfonamide] | –
7 | 17.4 | < 0.1 | CCc1onc(-c2ccccc2)c1-c1ccc(S(N)(=O)=O)cc1 [Example 1a, 4-[5-ethyl-3-phenylisoxazol-4-yl]benzenesulfonamide] | –
8 | 13.2 | < 0.1 | CCCc1onc(-c2ccccc2)c1-c1ccc(S(N)(=O)=O)cc1 [Example 1b, 4-[5-propyl-3-phenylisoxazol-4-yl]benzenesulfonamide] | –
9 | > 100 | < 0.1 | CC(C)(C)Cc1onc(-c2ccccc2)c1-c1ccc(S(N)(=O)=O)cc1 [Example 1g, 4-[5-neopentyl-3-phenylisoxazol-4-yl]benzenesulfonamide] | –
10 | > 100 | < 0.1 | COCc1onc(-c2ccccc2)c1-c1ccc(S(N)(=O)=O)cc1 [Example 1n, 4-[5-methoxymethyl-3-phenylisoxazol-4-yl]benzenesulfonamide] | –

More lines, now with the values behind:

Row | Compound | IC50 (COX-1) [µM] | IC50 (COX-2) [µM] | RAT PAW EDEMA % Inhibition (rat paw edema) [%]
11 | CS(=O)(=O)c1ccc(-c2c(-c3ccccc3)noc2C(F)F)cc1 [Example 47, 5-Difluoromethyl-4-(4-methylsulfonylphenyl)-3-phenylisoxazole] | > 100 | < 0.1 | 24
12 | NS(=O)(=O)c1ccc(-c2c(CO)noc2-c2ccccc2)cc1 [Example 25, 4-[3-Hydroxymethyl-5-phenylisoxazol-4-yl]benzenesulfonamide] | > 100 | 79 | –
13 | Cc1onc(-c2ccc(Cl)c(Cl)c2)c1-c1ccc(S(N)(=O)=O)cc1 [Example 67, 4-[5-Methyl-3-(3,4-dichlorophenyl)isoxazol-4-yl]benzenesulfonamide] | 36 | 0.3 | –
14 | Cc1ccc(-c2onc(C)c2-c2ccc(S(N)(=O)=O)cc2)cc1 [Example 19, 4-[3-Methyl-5-(4-methylphenyl)isoxazol-4-yl]benzenesulfonamide] | > 100 | 8.7 | –
15 | NS(=O)(=O)c1ccc(-c2c(-c3ccccc3)noc2Cl)cc1 [Example 38, 4-[5-Chloro-3-phenylisoxazol-4-yl]benzenesulfonamide] | > 100 | < 0.1 | –
16 | Cc1noc(-c2ccc(Cl)cc2)c1-c1ccc(S(N)(=O)=O)cc1 [Example 20, 4-[5-(4-chlorophenyl)-3-methylisoxazol-4-yl]benzenesulfonamide] | > 100 | 4.7 | –
17 | CCc1noc(-c2ccccc2C)c1-c1ccc(S(N)(=O)=O)cc1 [Example 54, 4-[3-Ethyl-5-(2-methylphenyl)isoxazol-4-yl]benzenesulfonamide] | > 100 | 1.8 | –
18 | NS(=O)(=O)c1ccc(-c2c(-c3ccccc3)noc2O)cc1 [Example 12, 4-[5-Hydroxy-3-phenylisoxazol-4-yl]benzenesulfonamide] | > 100 | 2.5 | –
19 | Cc1onc(-c2cccc(Cl)c2)c1-c1ccc(S(N)(=O)=O)cc1 [Example 48, 4-[3-(3-Chlorophenyl)-5-methylisoxazol-4-yl]benzenesulfonamide] | 93 | 0.3 | –
20 | Cc1onc(-c2ccc(S(N)(=O)=O)cc2)c1-c1ccccc1 [Example 41, 4-[5-Methyl-4-phenylisoxazol-3-yl]benzenesulfonamide] | 81 | 57.5 | –
21 | NS(=O)(=O)c1ccc(-c2c(-c3ccccc3)noc2COCCO)cc1 [Example 60, 4-[5-(2-Hydroxyethyl)oxymethyl-3-phenylisoxazol-4-yl]benzenesulfonamide] | > 100 | 0.2 | –
22 | COc1ccc(-c2noc(CC(=O)O)c2-c2ccc(S(C)(=O)=O)cc2)cc1F [Example 6, [3-[3-Fluoro-4-methoxyphenyl]-4-[4-(methylsulfonyl)phenyl]isoxazol-5-yl]acetic acid] | > 100 | 35.7 | –
23 | Cc1noc(-c2ccccc2)c1-c1ccc(S(C)(=O)=O)cc1 [Example 27, 3-Methyl-4-(4-methylsulfonylphenyl)-5-phenylisoxazole] | > 100 | 46 | –
24 | Cc1onc(-c2ccc(Cl)c(Cl)c2C(=O)O)c1-c1ccc(S(N)(=O)=O)cc1 [Example 68, 6-[4-[4-(aminosulfonyl)phenyl]-5-methylisoxazol-3-yl]-2,3-dichlorobenzoic acid] | > 100 | 0.4 | –
25 | N#Cc1onc(-c2ccccc2)c1-c1ccc(S(N)(=O)=O)cc1 [Example 37, 4-[5-Cyano-3-phenylisoxazol-4-yl]benzenesulfonamide] | > 100 | 20 | –
26 | Cc1noc(-c2ccc(S(C)(=O)=O)cc2)c1-c1ccccc1 [Example 22, 3-Methyl-5-(4-methylsulfonylphenyl)-4-phenylisoxazole] | > 100 | 5.3 | –
27 | CCc1noc(-c2ccccc2F)c1-c1ccc(S(N)(=O)=O)cc1 [Example 33, 4-[3-Ethyl-5-(2-fluorophenyl)isoxazol-4-yl]benzenesulfonamide] | 26 | < 0.1 | –
28 | COC(=O)c1ccc(OCc2onc(-c3ccccc3)c2-c2ccc(S(N)(=O)=O)cc2)cc1 [Example 50, Methyl 4-[[4-[4-(aminosulfonyl)phenyl]-3-phenylisoxazol-5-yl]methoxy]benzoate] | > 100 | < 0.1 | –
29 | Cc1onc(-c2ccc(Br)cc2)c1-c1ccc(S(N)(=O)=O)cc1 [Example 43, 4-[3-(4-Bromophenyl)-5-methyl-isoxazol-4-yl]benzenesulfonamide] | > 100 | 0.6 | –
30 | Cc1noc(-c2ccc(S(N)(=O)=O)cc2)c1-c1ccccc1 [Example 23, 4-[3-Methyl-4-phenylisoxazol-5-yl]benzenesulfonamide] | 56 | 0.2 | –
31 | NS(=O)(=O)c1ccc(-c2c(CC(O)c3ccc(Cl)cc3)noc2-c2ccccc2)cc1 (centres unmarked) [Example 28, 4-[3-[2-(4-Chlorophenyl)-2-hydroxyethyl]-5-phenylisoxazol-4-yl]benzenesulfonamide] | > 100 | 0.1 | –
32 | CCCc1noc(-c2ccccc2)c1-c1ccc(S(N)(=O)=O)cc1 [Example 16, 4-[5-Phenyl-3-propylisoxazol-4-yl]benzenesulfonamide] | > 100 | 3.1 | –
33 | CSc1onc(-c2ccccc2)c1-c1ccc(S(N)(=O)=O)cc1 [Example 58, 4-[5-Methylthio-3-phenylisoxazol-4-yl]benzenesulfonamide] | 14 | < 0.1 | –
34 | CS(=O)(=O)c1ccc(-c2c(-c3ccccc3)noc2CO)cc1 [Example 61, 5-Hydroxymethyl-4-(4-methylsulfonyl)phenyl-3-phenyl-isoxazole] | > 100 | 0.2 | –
35 | CCCCc1noc(-c2ccccc2)c1-c1ccc(S(N)(=O)=O)cc1 [Example 18, 4-[3-Butyl-5-phenylisoxazol-4-yl]benzenesulfonamide] | > 100 | 0.6 | –
